Assay results taken from patent publication US4482553A, “Benzothienylglycyl cephalosporin derivatives” (priority 1983, dated 1984).
In brackets after ≈: the same amount, converted by molar mass. Like-named read-outs stand apart in the source and are kept apart here.

Experiments:
Type in all cases: cell-based
[1] = system: H. influ.; experiment: Expanded Spectrum MIC (Table II), H. influ.
Description: (§1) The antibacterial activity of several compounds of the invention has been determined in standard in vitro agar dilution assays against a variety of gram positive and gram negative microorganisms. The following Tables present typical minimum inhibitory concentrations (MIC's) in μg/ml for several compounds of the invention when evaluated against the indicated microorganisms. MIC's for several known compounds are also presented for comparison.

[2] = system: Staph. aureus; experiment: Expanded Spectrum MIC (Table II), Staph. aureus; conditions: Staphylococcus aureus
Description: as §1

[3] = system: Strep. PN; experiment: standard in vitro agar dilution MIC (Table I), Strep. PN; conditions: strain PARK, read-out: MIC
[4] = system: Klebsiella; experiment: standard in vitro agar dilution MIC (Table I), Klebsiella
[5] = system: Strep. D; experiment: standard in vitro agar dilution MIC (Table I), Strep. D
[6] = system: Strep. A; experiment: standard in vitro agar dilution MIC (Table I), Strep. A; conditions: Table I, agar dilution, strain C203; read-out: MIC
[7] = system: Staph. aureus; experiment: standard in vitro agar dilution MIC (Table I), Staph. aureus; conditions: Staphylococcus aureus
[8] = system: Staph. epi; experiment: Expanded Spectrum MIC (Table II), Staph. epi
Description: as §1

[9] = system: H. influ.; experiment: standard in vitro agar dilution MIC (Table I), H. influ.
Description: as §1

[10] = system: Staph. epi; experiment: standard in vitro agar dilution MIC (Table I), Staph. epi
[11] = system: E. coli; experiment: standard in vitro agar dilution MIC (Table I), E. coli; conditions: Escherichia coli
[12] = Klebsiella, Table I, agar dilution, strain KAE, read-out: MIC
[13] = Klebsiella, Table I, agar dilution, strain X26, read-out: MIC
[14] = Klebsiella, Table I, agar dilution, strain X68, read-out: MIC
[15] = Table I, agar dilution, strain 222, read-out: MIC
[16] = Table I, agar dilution, strain EPI1, read-out: MIC
[17] = Table I, agar dilution, strain X68

CC1=C(C(=O)O)N2C(=O)C(NC(=O)[C@H](N)c3cc4c(Cl)cccc4s3)C2SC1 (stereo partly drawn) [Ex. 7A, D-7-(4-chloro-2-benzothienylglycylamido)-3-methyl-3-cephem-4-carboxylic acid]
MIC ([1]; strain 76, read-out: MIC): 16 µg/mL (≈ 36.5 µM) | MIC ([1]; strain 158, read-out: MIC): 8 µg/mL (≈ 18.3 µM) | MIC ([1]; strain 169, read-out: MIC): 8 µg/mL (≈ 18.3 µM) | MIC ([1]; strain 312, read-out: MIC): 16 µg/mL (≈ 36.5 µM) | MIC ([1]; strain 1683, read-out: MIC): 4 µg/mL (≈ 9.13 µM) | MIC ([1]; strain 1930, read-out: MIC): 16 µg/mL (≈ 36.5 µM) | MIC ([1]; strain 4842, read-out: MIC): 8 µg/mL (≈ 18.3 µM) | MIC ([1]; strain C.L., read-out: MIC): 32 µg/mL (≈ 73.1 µM) | MIC ([1]; strain HESS, read-out: MIC): 32 µg/mL (≈ 73.1 µM) | MIC ([1]; strain M366, read-out: MIC): 32 µg/mL (≈ 73.1 µM) | MIC ([1]; strain R465, read-out: MIC): 16 µg/mL (≈ 36.5 µM) | MIC ([1]; strain STEL, read-out: MIC): 32 µg/mL (≈ 73.1 µM) | MIC ([2]; strain 239, read-out: MIC): 0.5 µg/mL (≈ 1.14 µM) | MIC ([2]; strain S224, read-out: MIC): 0.5 µg/mL (≈ 1.14 µM) | MIC ([2]; strain S225, read-out: MIC): 0.5 µg/mL (≈ 1.14 µM) | MIC ([2]; strain S226, read-out: MIC): 0.5 µg/mL (≈ 1.14 µM) | MIC ([2]; strain S227, read-out: MIC): 0.5 µg/mL (≈ 1.14 µM) | MIC ([2]; strain S228, read-out: MIC): 0.5 µg/mL (≈ 1.14 µM) | MIC ([2]; strain S229, read-out: MIC): 0.5 µg/mL (≈ 1.14 µM) | MIC ([2]; strain S230, read-out: MIC): 0.5 µg/mL (≈ 1.14 µM) | MIC ([2]; strain S231, read-out: MIC): 0.25 µg/mL (≈ 0.571 µM) | MIC ([2]; strain S234, read-out: MIC): 0.5 µg/mL (≈ 1.14 µM) | MIC ([2]; strain S237, read-out: MIC): 0.5 µg/mL (≈ 1.14 µM) | MIC ([2]; strain S238, read-out: MIC): 0.5 µg/mL (≈ 1.14 µM) | MIC [3]: 0.5 µg/mL (≈ 1.14 µM) | MIC [4, 12]: > 128 µg/mL | MIC [4, 13]: 8 µg/mL (≈ 18.3 µM) | MIC [4, 14]: > 128 µg/mL | MIC ([5]; strain 2041, read-out: MIC): 32 µg/mL (≈ 73.1 µM) | MIC ([5]; strain X66, read-out: MIC): 32 µg/mL (≈ 73.1 µM) | MIC [6]: 0.25 µg/mL (≈ 0.571 µM) | MIC ([7]; strain V41, read-out: MIC): 2 µg/mL (≈ 4.57 µM) | MIC ([7]; strain X1.1, read-out: MIC): 0.5 µg/mL (≈ 1.14 µM) | MIC ([7]; strain X400, read-out: MIC): 32 µg/mL (≈ 73.1 µM) | MIC ([8]; strain 219, read-out: MIC): 0.5 µg/mL (≈ 1.14 µM) | MIC ([8]; strain 269, read-out: MIC): 1 µg/mL (≈ 2.28 µM) | MIC ([8]; strain 270, read-out: MIC): 2 µg/mL (≈ 4.57 µM) | MIC ([8]; strain 285, read-out: MIC): 1 µg/mL (≈ 2.28 µM) | MIC ([8]; strain 286, read-out: MIC): 0.25 µg/mL (≈ 0.571 µM) | MIC ([8]; strain EPI1, read-out: MIC): 4 µg/mL (≈ 9.13 µM) | MIC ([9]; strain 76, read-out: MIC): 4 µg/mL (≈ 9.13 µM) | MIC [10, 15]: 1 µg/mL (≈ 2.28 µM) | MIC [10, 16]: 2 µg/mL (≈ 4.57 µM) | MIC ([11]; strain EC14): > 128 µg/mL | MIC ([11]; strain N10): > 128 µg/mL | MIC ([11]; strain TEM): > 128 µg/mL

CC1=C(C(=O)O)N2C(=O)C(NC(=O)[C@@H](N)c3cc4c(Cl)cccc4s3)C2SC1 (stereo partly drawn) [Ex. 7B, L-7-(4-chloro-2-benzothienylglycylamido)-3-methyl-3-cephem-4-carboxylic acid]
MIC [3]: 2 µg/mL (≈ 4.57 µM) | MIC [4, 12]: > 128 µg/mL | MIC [4, 13]: 32 µg/mL (≈ 73.1 µM) | MIC [4, 14]: > 128 µg/mL | MIC ([5]; strain 2041, read-out: MIC): 128 µg/mL (≈ 292 µM) | MIC ([5]; strain X66, read-out: MIC): > 128 µg/mL | MIC [6]: 0.5 µg/mL (≈ 1.14 µM) | MIC ([7]; strain V41, read-out: MIC): 16 µg/mL (≈ 36.5 µM) | MIC ([7]; strain X1.1, read-out: MIC): 2 µg/mL (≈ 4.57 µM) | MIC ([7]; strain X400, read-out: MIC): 128 µg/mL (≈ 292 µM) | MIC ([9]; strain 76, read-out: MIC): 4 µg/mL (≈ 9.13 µM) | MIC ([9]; strain C.L., read-out: MIC): 64 µg/mL (≈ 146 µM) | MIC [10, 15]: 4 µg/mL (≈ 9.13 µM) | MIC [10, 16]: 8 µg/mL (≈ 18.3 µM) | MIC ([11]; strain EC14): > 128 µg/mL | MIC ([11]; strain N10): > 128 µg/mL | MIC ([11]; strain TEM): > 128 µg/mL

COc1c([C@@H](N)C(=O)NC2C(=O)N3C(C(=O)O)=C(C)CSC23)sc2ccccc12 (stereo partly drawn) [Ex. 9A, D-7-(3-methoxy-2-benzothienylglycylamido)-3-methyl-3-cephem-4-carboxylic acid]
MIC ([2]; strain 239, read-out: MIC): 0.5 µg/mL (≈ 1.15 µM) | MIC ([2]; strain S224, read-out: MIC): 0.25 µg/mL (≈ 0.577 µM) | MIC ([2]; strain S225, read-out: MIC): 0.25 µg/mL (≈ 0.577 µM) | MIC ([2]; strain S226, read-out: MIC): 0.5 µg/mL (≈ 1.15 µM) | MIC ([2]; strain S227, read-out: MIC): 0.25 µg/mL (≈ 0.577 µM) | MIC ([2]; strain S228, read-out: MIC): 0.25 µg/mL (≈ 0.577 µM) | MIC ([2]; strain S229, read-out: MIC): 0.5 µg/mL (≈ 1.15 µM) | MIC ([2]; strain S230, read-out: MIC): 0.25 µg/mL (≈ 0.577 µM) | MIC ([2]; strain S231, read-out: MIC): 0.25 µg/mL (≈ 0.577 µM) | MIC ([2]; strain S234, read-out: MIC): 0.5 µg/mL (≈ 1.15 µM) | MIC ([2]; strain S237, read-out: MIC): 0.5 µg/mL (≈ 1.15 µM) | MIC ([2]; strain S238, read-out: MIC): 1 µg/mL (≈ 2.31 µM) | MIC [3]: 4 µg/mL (≈ 9.23 µM) | MIC ([4]; Klebsiella): > 128 µg/mL | MIC [4, 13]: 32 µg/mL (≈ 73.8 µM) | MIC [4, 17]: > 128 µg/mL | MIC ([5]; strain 2041): 128 µg/mL (≈ 295 µM) | MIC ([5]; strain X66): > 128 µg/mL | MIC [6]: 1 µg/mL (≈ 2.31 µM) | MIC ([7]; strain S13E): 64 µg/mL (≈ 148 µM) | MIC ([7]; strain V41, read-out: MIC): 64 µg/mL (≈ 148 µM) | MIC ([7]; strain X1.1, read-out: MIC): 4 µg/mL (≈ 9.23 µM) | MIC ([7]; strain X400, read-out: MIC): > 128 µg/mL | MIC ([8]; strain 219, read-out: MIC): 0.25 µg/mL (≈ 0.577 µM) | MIC ([8]; strain 269, read-out: MIC): 1 µg/mL (≈ 2.31 µM) | MIC ([8]; strain 270, read-out: MIC): 1 µg/mL (≈ 2.31 µM) | MIC ([8]; strain 285, read-out: MIC): 0.5 µg/mL (≈ 1.15 µM) | MIC ([8]; strain 286, read-out: MIC): 0.25 µg/mL (≈ 0.577 µM) | MIC ([8]; strain EPI1, read-out: MIC): 4 µg/mL (≈ 9.23 µM) | MIC ([9]; strain 76, read-out: MIC): 32 µg/mL (≈ 73.8 µM) | MIC ([9]; strain C.L., read-out: MIC): 64 µg/mL (≈ 148 µM) | MIC [10, 15]: 8 µg/mL (≈ 18.5 µM) | MIC [10, 16]: 32 µg/mL (≈ 73.8 µM) | MIC ([11]; strain EC14): 128 µg/mL (≈ 295 µM) | MIC ([11]; strain N10): > 128 µg/mL | MIC ([11]; strain TEM): > 128 µg/mL

COc1c([C@H](N)C(=O)NC2C(=O)N3C(C(=O)O)=C(C)CSC23)sc2ccccc12 (stereo partly drawn) [Ex. 9B, L-7-(3-methoxy-2-benzothienylglycylamido)-3-methyl-3-cephem-4-carboxylic acid]
MIC [3]: 32 µg/mL (≈ 73.8 µM) | MIC ([4]; Klebsiella): > 128 µg/mL | MIC ([4]; Table I, agar dilution, strain KAE): > 128 µg/mL | MIC [4, 17]: > 128 µg/mL | MIC ([5]; strain 2041): > 128 µg/mL | MIC ([5]; strain X66): > 128 µg/mL | MIC [6]: 4 µg/mL (≈ 9.23 µM) | MIC ([7]; strain S13E): > 128 µg/mL | MIC ([7]; strain V41, read-out: MIC): > 128 µg/mL | MIC ([7]; strain X1.1, read-out: MIC): 16 µg/mL (≈ 36.9 µM) | MIC ([7]; strain X400, read-out: MIC): > 128 µg/mL | MIC ([9]; strain 76, read-out: MIC): 64 µg/mL (≈ 148 µM) | MIC ([9]; strain C.L.): > 128 µg/mL | MIC [10]: 128 µg/mL (≈ 295 µM) | MIC [10, 15]: 32 µg/mL (≈ 73.8 µM) | MIC ([11]; strain EC14): > 128 µg/mL | MIC ([11]; strain N10): > 128 µg/mL | MIC ([11]; strain TEM): > 128 µg/mL
